According to BindingDB's records for doi:10.1016/j.bmcl.2004.02.008 (Astrazeneca, 2004):

Each molecule was assayed against Cyclin-dependent kinase 2/G1/S-specific cyclin-E1 (Homo sapiens, UniProt P24941) (assay: CDK Assay). Conditions: pH 7; 22 °C.
Method: The kinase activity was assayed using an in vitro scintillation proximity assay (SPA) for measuring incorporation of [gamma-33P] ATP into GST-Rb.

Structure (SMILES) | IC50 [nM]
COCCNS(=O)(=O)c1ccc(Nc2ncc(Sc3ccccc3)c(-c3cnc4ccccn34)n2)cc1 [4-[(4-{imidazo[1,2-a]pyridin-3-yl}-5-(phenylsulfanyl)pyrimidin-2-yl)amino]-N-(2-methoxyethyl)benzene-1-sulfonamide] | > 10000
CN(C)CCNS(=O)(=O)c1ccc(Nc2nccc(-c3cnc4cccnn34)n2)cc1 [N-[2-(dimethylamino)ethyl]-4-[(4-{imidazo[1,2-a]pyridazin-3-yl}pyrimidin-2-yl)amino]benzene-1-sulfonamide] | 8
COCCNS(=O)(=O)c1ccc(Nc2nccc(-c3cnc4ccc(OC)nn34)n2)cc1 [N-(2-methoxyethyl)-4-[(4-{6-methoxyimidazo[1,2-a]pyridazin-3-yl}pyrimidin-2-yl)amino]benzene-1-sulfonamide] | 600
c1ccc(Nc2nccc(-c3cnc4cccnn34)n2)cc1 [4-{imidazo[1,2-a]pyridazin-3-yl}-N-phenylpyrimidin-2-amine] | 1000
COCCNS(=O)(=O)c1ccc(Nc2nccc(-c3c(C)nc4cccnn34)n2)cc1 [N-(2-methoxyethyl)-4-[(4-{2-methylimidazo[1,2-a]pyridazin-3-yl}pyrimidin-2-yl)amino]benzene-1-sulfonamide] | 3
CN(C)CCCNS(=O)(=O)c1ccc(Nc2nccc(-c3cnc4cccnn34)n2)cc1 [N-[3-(dimethylamino)propyl]-4-[(4-{imidazo[1,2-a]pyridazin-3-yl}pyrimidin-2-yl)amino]benzene-1-sulfonamide] | < 3
NS(=O)(=O)c1ccc(Nc2nccc(-c3cnc4cccnn34)n2)cc1 [4-[(4-{imidazo[1,2-a]pyridazin-3-yl}pyrimidin-2-yl)amino]benzene-1-sulfonamide] | < 3
COCCN(C)S(=O)(=O)c1ccc(Nc2nccc(-c3cnc4cccnn34)n2)cc1 [4-[(4-{imidazo[1,2-a]pyridazin-3-yl}pyrimidin-2-yl)amino]-N-(2-methoxyethyl)-N-methylbenzene-1-sulfonamide] | 600

Next, values leading:

IC50 [nM] | Structure (SMILES)
< 3 | COCCNS(=O)(=O)c1ccc(Nc2nccc(-c3cnc4ccc(Br)cn34)n2)cc1 [4-[(4-{6-bromoimidazo[1,2-a]pyridin-3-yl}pyrimidin-2-yl)amino]-N-(2-methoxyethyl)benzene-1-sulfonamide]
< 3 | COCCNS(=O)(=O)c1ccc(Nc2nccc(-c3cnc4cccnn34)n2)cc1 [4-[(4-{imidazo[1,2-a]pyridazin-3-yl}pyrimidin-2-yl)amino]-N-(2-methoxyethyl)benzene-1-sulfonamide]
< 3 | CCSc1ccc2ncc(-c3ccnc(Nc4ccc(S(=O)(=O)NCCOC)cc4)n3)n2c1 [4-({4-[6-(ethylsulfanyl)imidazo[1,2-a]pyridin-3-yl]pyrimidin-2-yl}amino)-N-(2-methoxyethyl)benzene-1-sulfonamide]
< 3 | COCCNS(=O)(=O)c1ccc(Nc2nccc(-c3cnc4ccc(C#N)cn34)n2)cc1 [4-[(4-{6-cyanoimidazo[1,2-a]pyridin-3-yl}pyrimidin-2-yl)amino]-N-(2-methoxyethyl)benzene-1-sulfonamide]
< 3 | CNS(=O)(=O)c1ccc(Nc2nccc(-c3cnc4cccnn34)n2)cc1 [4-[(4-{imidazo[1,2-a]pyridazin-3-yl}pyrimidin-2-yl)amino]-N-methylbenzene-1-sulfonamide]
